Test results from US20220257722A1, “COMPOSITIONS AND METHODS OF TREATING AND PREVENTING SYSTEMIC COMPLICATIONS OF ACUTE ILLNESS” (United States Government As Represented By The Department …, priority 2019, published 2022).

Key:
[1] = system: rat jejunal mucosa; experiment: LPS mucosal-to-serosal transport in rat jejunal mucosa read by TLR4 reporter cell assay; format: cell-based; conditions: same samples as FITC measurement; SSO 0.1 mM or MβCD 1 mM
Method: TLR-4 reporter cell assay. Since the LAL test may overestimate LPS levels due to nonspecific detection of […] (66), and FITC-LPS method measures LPS fluorescence without regard to the functional activity of LPS, experiments were carried out to determine whether the samples contained intact, functional LPS that is a preferential TLR-4 ligand. In order to confirm that intact LPS was measured in the samples used for measurements in the Ussing chamber study, a TLR4 reporter cell assay was used that consists of HEK293 cells co-transfected with murine TLR4, myeloid differentiation 2 and CD14 co-receptor genes and an inducible secreted embryonic alkaline phosphatase (SEAP) reporter gene with nuclear factor-kappa B (NF-kB) and activator protein 1 (AP-1) binding motifs (HEK-Blue mTLR-4, InvivoGen, San Diego, Calif.). Cells were harvested in a 96-well plate with standards and samples for 24 hr. The presence of LPS was detected as induced SEAP activity in the medium using HEK-Blue Detection (InvivoGen) by measuring absorbance at 655 nm with Synergy-2 24 hrs after the addition of standards and samples, according to the manufacturer's protocol. Ultrapure LPS from E. coli 055:B5 (LPS-B5 Ultrapure, InvivoGen) was used as standard at a range of 0.01-100 ng/ml.

[2] = system: rat jejunal mucosa; experiment: FITC-LPS mucosal-to-serosal transport in Ussing-chambered rat jejunal mucosa (FITC fluorescence); format: cell-based; conditions: mucosal FITC-LPS 10 μg/ml; SSO 0.1 mM or MβCD 1 mM
Method: Short-circuit current measurements in Ussing chambered preparations. Mucosa-submucosa preparations were prepared from the mid-jejunum (˜20 cm from the pyloric ring) by muscle stripping using fine forceps under a stereomicroscope. Two or four preparations were prepared from one animal. The tissue was then mounted between two hemi-sliders with an aperture=0.3 cm^2 (Physiologic Instruments, San Diego, Calif., USA). Chambers were bathed with serosal and luminal bathing solutions in a volume of 4 ml each, maintained at 37° C. using a water recirculating heating system. […] Short-circuit current (Isc) was continuously measured with tissue conductance (Gt) and TEER (Ω·cm^2) determined every 20 sec in order to assess the tissue integrity during the LPS and lipid exposure. The current was recorded by the DataQ system (Physiologic Instruments). […]
LPS movement from mucosal to serosal solution. LPS movement m-to-s was assessed using a LAL test kit (Pierce Chromogenic Endotoxin Quant Kit, Pierce Biotechnology, Rockford, Ill., USA), which eliminates non-specific detection of (1,3)-β-D-glucan, then reduces false-positive LPS measurements. […] LPS content in the serosal solutions was measured with the LAL test according to the manufacturer's protocol. The value of background at t=0 min was subtracted and the serosal LPS appearance was expressed as Δ[LPS] […]

[3] = system: rat jejunal mucosa; experiment: LPS mucosal-to-serosal transport in Ussing-chambered rat jejunal mucosa (LAL test); format: cell-based; conditions: for OA/TCA-augmented LPS transport (t=30-45 min): mucosal LPS 10 μg/ml + OA 30 mM/TCA 0.1 mM; for OA/TCA-augmented LPS transport (t=30-45 min) / LPS transport at t=15 min (LPS alone, absence of OA/TCA): drug added 10 or 15 min before LPS; for LPS transport at t=15 min (LPS alone, absence of OA/TCA): mucosal LPS 10 μg/ml; for inhibitory effect of GLP-2 on LPS transport during OA/TCA exposure: inhibitor serosal 5 min before GLP-2 100 nM + NVP-728 10 μM; for amount of LPS transport at t=15 min (prior to OA/TCA exposure), in presence of GLP-2 + NVP-728: inhibitor serosal before GLP-2 + NVP-728
Method: Short-circuit current measurements in Ussing chambered preparations. Mucosa-submucosa preparations were prepared from the mid-jejunum (˜20 cm from the pyloric ring) by muscle stripping using fine forceps under a stereomicroscope. Two or four preparations were prepared from one animal. The tissue was then mounted between two hemi-sliders with an aperture=0.3 cm^2 (Physiologic Instruments, San Diego, Calif., USA). Chambers were bathed with serosal and luminal bathing solutions in a volume of 4 ml each, maintained at 37° C. using a water recirculating heating system. The serosal Krebs-Ringer solution contained (in mM) NaCl, 117; KCl, 4.7; MgCl2, 1.2; NaH2PO4, 1.2; CaCl2, 2.5; NaHCO3, 25; glucose, 11; and bubbled with 95% O2-5% CO2 to maintain pH at 7.4. The luminal bathing solution contained NaCl, 136; KCl, 2.6; CaCl2, 1.8; HEPES, 10 (pH 7.0); mannitol, 11; and bubbled with 100% O2. The tissues were short-circuited by a voltage clamp (VCC MC6, Physiologic Instruments) at zero potential difference with automatic compensation for solution resistance. Short-circuit current (Isc) was continuously measured with tissue conductance (Gt) and TEER (Ω·cm^2) determined every 20 sec in order to assess the tissue integrity during the LPS and lipid exposure. The current was recorded by the DataQ system (Physiologic Instruments). IND (10 μM) was added to the serosal bath to eliminate the effects of endogenous prostaglandin production. The tissues were stabilized for ˜30 min before the addition of test chemicals.
LPS movement from mucosal to serosal solution. LPS movement m-to-s was assessed using a LAL test kit (Pierce Chromogenic Endotoxin Quant Kit, Pierce Biotechnology, Rockford, Ill., USA), which eliminates non-specific detection of (1,3)-β-D-glucan, then reduces false-positive LPS measurements. After tissue stabilization, time was set as t=0 min. Fifty μl of the serosal solution was collected at 0 min as a blank sample, followed by collection at t=15, 30 and 45 min. At t=0 min, LPS (10 μg/ml) was added into the mucosal solution. Vehicle (PBS alone), TCA alone (0.1 mM) in PBS or OA (3, 10, 30 mM) with TCA (0.1 mM) in PBS was added into the mucosal solution at t=15 min. The tissues were pretreated with drugs 10 or 15 min before the addition of LPS (i.e. at t=−10 or −15 min). The collected serosal solutions were kept at −80° C. until use. LPS content in the serosal solutions was measured with the LAL test according to the manufacturer's protocol. The value of background at t=0 min was subtracted and the serosal LPS appearance was expressed as Δ[LPS] (EU/ml). In some experiments, FITC-LPS (10 μg/ml) was used instead of LPS. Serosal FITC-LPS content was assessed by FITC fluorescence intensity measurement using a multi-mode microplate reader (Synergy-2, BioTek Instruments, Inc., Winooski, Vt., USA). To detect macromolecule m-to-s movement across the mucosa, FD4 (0.1 mM) was applied into the mucosal bath and serosal FD4 content was assessed by FITC fluorescence intensity measurement.
Ussing chamber study: drug treatment. The following drugs were pretreated by addition to the mucosal (m) or serosal (s) bath 10 or 15 min before LPS addition to the mucosal bath: the lipid raft inhibitor MβCD (1 mM, m), the CD36 inhibitor SSO (0.1 mM, m), the muscarinic agonist CCh (10 μM, s), a competitive substrate for IAP (IAP inhibitor) GP (10 mM, m) (47), GLP-2 (100 nM, s), the dipeptidyl peptidase-4 (DPP4) inhibitor NVP-728 (10 μM, s) (36), the stable GLP-2 analog TDG (100 nM) (13), the insulin-like growth factor-1 (IGF-1) receptor tyrosine kinase inhibitor NVP-AEW-541 (10 μM, s) (22), the epidermal growth factor (EGF) tyrosine kinase inhibitor PD153035 (1 μM, s) (6), the nitric oxide (NO) synthase (NOS) inhibitor L-NAME (0.1 mM, s) and the selective VPAC1 antagonist PG97-269 (1 μM) (26).

[4] = cited from earlier work
[5] = system: murine model of pancreatitis; experiment: Cerulein-induced acute pancreatitis in mice: organ cytokines, PV LPS, FD4 uptake, histology; format: in vivo, C57BL/6 mice
Method: Methods. Pancreatitis was induced in C57BL/6 male and female mice at 8-10 weeks of age by multiple injections of cerulein (50 μg/kg, ip, hourly, 8 times). Samples (e.g., PV and abdominal arterial blood) were collected 0, 18, and 24 hrs after the final injection of cerulein. Tissues were removed and stored for histology and real-time polymerase chain reaction (PCR)-based expression analysis. TDG, (500 μg/kg, ip) was given 0 and 18 hrs after the final injection of cerulein, followed by sampling 24 hrs after the final injection of cerulein. Proinflammatory cytokines was assessed by real-time PCR; PV LPS levels were measured using the limulus amebocyte lysate (LAL) test.

[6] = 24 hrs after cerulein treatment

Molecule	LPS m-to-s transport during OA/TCA exposure by TLR4 reporter cell assay [1]	OA/TCA-increased serosal LPS content measured by FITC fluorescence intensity [2]	OA/TCA-augmented LPS transport (t=30-45 min) [3]	LPS transport at t=15 min (LPS alone, absence of OA/TCA) [3]	inhibitory effect of GLP-2 on LPS transport during OA/TCA exposure [3]	amount of LPS transport at t=15 min (prior to OA/TCA exposure), in presence of GLP-2 + NVP-728 [3]	further results
methyl-β-cyclodextrin [MβCD]	abolished	abolished	inhibited	no effect	–	–	–
CCCCCCCC/C=C\CCCCCCCC(=O)ON1C(=O)CC(S(=O)(=O)O)C1=O (centres unmarked) [SSO, sulfosuccinimidyl oleate]	abolished	abolished	abolished	no effect	–	–	–
CC[C@H](C)[C@H](NC(=O)[C@H](Cc1ccccc1)NC(=O)[C@H](CC(=O)O)NC(=O)[C@H](CCCNC(=N)N)NC(=O)[C@H](C)NC(=O)[C@H](C)NC(=O)[C@H](CC(C)C)NC(=O)[C@H](CC(N)=O)NC(=O)[C@H](CC(=O)O)NC(=O)[C@H](CC(C)C)NC(=O)[C@@H](NC(=O)[C@@H](NC(=O)[C@H](CC(N)=O)NC(=O)[C@H](CCSC)NC(=O)[C@H](CCC(=O)O)NC(=O)[C@H](CC(=O)O)NC(=O)[C@H](CO)NC(=O)[C@H](Cc1ccccc1)NC(=O)[C@H](CO)NC(=O)CNC(=O)[C@H](CC(=O)O)NC(=O)CNC(=O)[C@@H](N)Cc1c[nH]cn1)[C@@H](C)O)[C@@H](C)CC)C(=O)N[C@@H](CC(N)=O)C(=O)N[C@@H](Cc1c[nH]c2ccccc12)C(=O)N[C@@H](CC(C)C)C(=O)N[C@H](C(=O)N[C@@H](CCC(N)=O)C(=O)N[C@H](C(=O)N[C@@H](CCCCN)C(=O)N[C@H](C(=O)N[C@H](C(=O)N[C@@H](CC(=O)O)C(=O)O)[C@@H](C)O)[C@@H](C)CC)[C@@H](C)O)[C@@H](C)CC [TDG]	–	–	inhibited	–	–	–	elimination half-life ([4]; in humans): about 2 hours; serum t1/2 ([4]; reference [44]): ~2 h; PV LPS levels ([5]; 18 and 24 hrs after cerulein treatment, LAL test, TDG 500 μg/kg ip): significantly reduced; PV FD4 levels ([5]; 18 and 24 hrs after cerulein treatment, TDG 500 μg/kg ip): significantly reduced; histological changes in the pancreas [5, 6]: no effect; lung inflammation (histology) [5, 6]: reduced; Plasma TNFα levels ([5]; 24 hrs after cerulein treatment, TDG 500 μg/kg ip): reversed; increased expression of IL-1β and IL-6 in the pancreas ([5]; TDG 500 μg/kg ip 0 and 18 hrs after final cerulein): no effect; elevated lipase levels ([5]; TDG 500 μg/kg ip 0 and 18 hrs after final cerulein, plasma): no effect; inflammatory cytokine expression in the lung ([5]; TDG 500 μg/kg ip 0 and 18 hrs after final cerulein, sampling 24 hrs, real-time PCR): significantly reduced
COC(=O)[C@@H](N)CCCNC(=N)N[N+](=O)[O-] [L-NAME, Nω-nitro-L-arginine methyl ester]	–	–	–	–	reversed	no effect	–
[Ac-His^1, D-Phe^2, Lys^15, Arg^16, Leu^27]-VIP(1-7)-GRF(8-27) (HFDAVFTNSYRKVLKRLSARKLLQDIL; HELM PEPTIDE1{[ac].H.[dF].D.A.V.F.T.N.S.Y.R.K.V.L.K.R.L.S.A.R.K.L.L.Q.D.I.L.[am]}$$$$V2.0; SMILES CC[C@H](C)[C@H](NC(=O)[C@H](CC(=O)O)NC(=O)[C@H](CCC(N)=O)NC(=O)[C@H](CC(C)C)NC(=O)[C@H](CC(C)C)NC(=O)[C@H](CCCCN)NC(=O)[C@H](CCCNC(=N)N)NC(=O)[C@H](C)NC(=O)[C@H](CO)NC(=O)[C@H](CC(C)C)NC(=O)[C@H](CCCNC(=N)N)NC(=O)[C@H](CCCCN)NC(=O)[C@H](CC(C)C)NC(=O)[C@@H](NC(=O)[C@H](CCCCN)NC(=O)[C@H](CCCNC(=N)N)NC(=O)[C@H](Cc1ccc(O)cc1)NC(=O)[C@H](CO)NC(=O)[C@H](CC(N)=O)NC(=O)[C@@H](NC(=O)[C@H](Cc1ccccc1)NC(=O)[C@@H](NC(=O)[C@H](C)NC(=O)[C@H](CC(=O)O)NC(=O)[C@@H](Cc1ccccc1)NC(=O)[C@H](Cc1c[nH]cn1)NC(C)=O)C(C)C)[C@@H](C)O)C(C)C)C(=O)N[C@@H](CC(C)C)C(N)=O) [PG97-269]	–	–	–	–	reversed	no effect	–
